Source: patent US20070225240A1, “Screening Assay and Treatment” (priority 2003, published 2007)
Read-outs that look alike come from different tables or passages of the source.

How the values were obtained:
[1] = tested on: transactivation function of p53; assay: Transactivation assay, bax-luciferase reporter, Saos2 cells; format: cell-based; conditions: EGF 20 ng/ml + 20% FCS, UO126 20 μM
Procedure: FIG. 27 Endogenous MAPK is necessary for ASPP1 and ASPP2 to stimulate the activity of p53. (A) Saos2 cells were co-transfected with bax-luciferase, ASPP2 and p53. After transfection, medium containing EGF (20 ng/ml) and 20% FCS were added to the cells, in the presence or absence of the MAPK inhibitor UO126 (20 μM). The negative control contained an equal volume of DMSO. […] (B) The putative MAPK phosphorylation sites of ASPP1 and ASPP2 were mutated to alanine, to generate ASPP1 (S671A), ASPP1 (S746), ASPP2 (S698A) and ASPP2 (S827A). Wild-type and mutant ASPP2 (B) or ASPP1 (C) were co-transfected with p53 and Bax-luciferase reporter in the presence or absence of RafCX (B) or K-rasV12 (C) in Saos2 cells, as indicated. Expression levels of ASPP1, p53 and K-rasV12 are shown in the right panel. PCNA was used as a loading control. The graph represents the fold over p53 and ASPP1 or ASPP2 taken from three independent experiments. FCS, foetal calf serum; EGF, epidermal growth factor; and
Saos2 cells (7×10^5) were plated 24 hours prior to transfection in 6-cm-diameter dishes. All transactivation assays contained 1 μg of reporter plasmid. […] The fold increase of p53 and ASPP by HRasV12/K-RasV12/RafCX was determined by the activity of p53 and ASPP in combination with RasV12/RafCX divided by the activity of p53 and ASPP alone.

[2] = tested on: ASPP2; conditions: cells treated with UO126, cell line not stated
[3] = tested on: ASPP2; conditions: MCF7, 20% FCS and EGF, cycloheximide 50 μg/ml, with versus without UO126
Procedure: (§1) Wild-type ASPP2 (A) or mutant ASPP2 (S827A) (B) were transfected in Saos2 cells in the presence or absence of H-rasv12. 16 hours after transfection, the cells were treated with cycloheximide (50 μg/ml) and lysates were made at the times indicated after cycloheximide treatment. The expression of ASPP2 and H-rasV12 were detected with antibodies V5 or HA, respectively. Actin was used as a loading control. (C) MCF7 cells were starved of serum for 24 hours in 0.5% FCS before treatment with 50 μg/ml cycloheximide (CHX) and 20% FCS and EGF, in the presence (right panel) or absence (left panel) of UO126 for the times indicated. 4 mg of lysate was immunoprecipitated with anti-ASPP2 antibody DX54.10 and the presence of ASPP2 was detected by Western blot with the polyclonal ASPP2/77 antibody (top lanes). Phosphorylated MAPK was detected with phospho-specific MAPK antibody and the total MAPK was detected with a MAPK antibody. The intensity of the. ASPP2 protein immunoprecipitated was quantified and the bands at 0 hours of CHX addition was set as 100 for both cells, as shown by the graph (right panel). (D) MDA Panc3 cells were treated with 50 μg/ml cycloheximide, 20 μM UO126 or both cycloheximide and UO126 for the times indicated. The lysate was resolved on SDS-PAGE gels and ASPP1 and ASPP2 protein levels were detected with mAbASPP1.54.2 and DX54.10 antibodies, respectively, and Mcl-1 was detected with an anti-Mcl1 polyclonal antibody.
(§2) Cells were either transfected with the appropriate expression plasmids or treated with 20 ng/ml EGF and 20 μM UO126 as indicated, the day prior to cycloheximide treatment. Cycloheximide was added to cells at a final concentration of 50 μg/ml in the appropriate medium. Cells were harvested and lysed at the time points indicated.

[4] = tested on: ASPP1 and ASPP2
Procedure: as §1, §2

[5] = MDA Panc3, cycloheximide 50 μg/ml + UO126 20 μM compared to cycloheximide alone

With `N#CC(=C(/N)Sc1ccccc1N)/C(C#N)=C(/N)Sc1ccccc1N` [UO126] the “transactivation function of p53 when ASPP2 was present” value ([1]; p53 + ASPP2) was “significantly inhibited”, the “transactivation function of p53 alone” value ([1]; p53 without ASPP2) was “small effect” and the ASPP2 protein levels [2] was “decrease in ASPP2 protein levels”. The ASPP2 protein levels [3] was “significantly decreased”, the ASPP1 expression levels [4, 5] was “significantly decreased” and the ASPP2 expression levels [4, 5] was “significantly decreased”. The “Mcl-1 stability (control)” value ([4]; MDA Panc3, cycloheximide, presence or absence of UO126) was “no difference in its stability”.
